Measured values reported in PubChem BioAssay AID330 (DTP/NCI, 2004).
Where “and” joins values, the source holds several entries; their conditions need not be identical. Identical values can stand only once. Inconclusive results and toxic doses are left out.

Test system: P388 leukemia ip, CD2F1 mice, survival T/C
Experiment: NCI In Vivo Anticancer Drug Screen. Data for tumor model P388 Leukemia (intraperitoneal) in CD2F1 (CDF1) mice
Conditions: endpoint: median survival time, higher = longer survival
How it was run: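 Mice carrying the transplanted tumor received test compound or vehicle. Survival was recorded in each group, and the value is the treated-group measurement divided by that of the vehicle-treated control group.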

[1] = dose: 50.0 mg/kg/injection, schedule: Q01DX005 (ip), vehicle: Klucel (hydroxypropylcellulose) (HPC)
[2] = dose: 100.0 mg/kg/injection, schedule: Q01DX005 (ip), vehicle: Klucel (hydroxypropylcellulose) (HPC)
[3] = dose: 200.0 mg/kg/injection, schedule: Q01DX005 (ip), vehicle: Klucel (hydroxypropylcellulose) (HPC)
[4] = dose: 50.0 mg/kg/injection, schedule: Q01DX005 (ip), vehicle: saline with Tween-80
[5] = dose: 100.0 mg/kg/injection, schedule: Q01DX009 (ip), vehicle: saline with Tween-80
[6] = dose: 200.0 mg/kg/injection, schedule: Q01DX009 (ip), vehicle: saline with Tween-80
[7] = dose: 60.0 mg/kg/injection, schedule: Q01DX005 (ip), vehicle: saline with Tween-80
[8] = dose: 120.0 mg/kg/injection, schedule: Q01DX005 (ip), vehicle: saline with Tween-80
[9] = dose: 12.5 mg/kg/injection, schedule: Q01DX009 (ip), vehicle: saline with Tween-80
[10] = dose: 25.0 mg/kg/injection, schedule: Q01DX009 (ip), vehicle: saline with Tween-80
[11] = dose: 50.0 mg/kg/injection, schedule: Q01DX009 (ip), vehicle: saline with Tween-80
[12] = dose: 100.0 mg/kg/injection, schedule: Q01DX005 (ip), vehicle: saline with Tween-80
[13] = dose: 200.0 mg/kg/injection, schedule: Q01DX005 (ip), vehicle: saline with Tween-80
[14] = dose: 100.0 mg/kg/injection, schedule: Q01DX009 (ip), vehicle: water
[15] = dose: 100.0 mg/kg/injection, schedule: Q04DX003 (ip), vehicle: saline
[16] = dose: 200.0 mg/kg/injection, schedule: Q04DX003 (ip), vehicle: saline
[17] = dose: 400.0 mg/kg/injection, schedule: Q04DX003 (ip), vehicle: saline
[18] = dose: 240.0 mg/kg/injection, schedule: Q01DX005 (ip), vehicle: saline with Tween-80

## CN(Cc1ccccc1)C(c1ccccc1)C1(c2ccccc2)Cc2ccccc2C(=O)O1 (centres undefined)
[1]
  T/C: 87 % of control
[2]
  T/C: 87 % of control
[3]
  T/C: 87 % of control

## COc1cccc(C(OC(=O)c2ccccc2)c2nncc3ccccc23)c1OC (centres undefined)
dose: 50.0 mg/kg/injection, schedule: Q01DX009 (ip), vehicle: Klucel (hydroxypropylcellulose) (HPC)
  T/C: 100 % of control
dose: 100.0 mg/kg/injection, schedule: Q01DX009 (ip), vehicle: Klucel (hydroxypropylcellulose) (HPC)
  T/C: 103 % of control
dose: 200.0 mg/kg/injection, schedule: Q01DX009 (ip), vehicle: Klucel (hydroxypropylcellulose) (HPC)
  T/C: 100 % of control

## CCOc1ccc(/C=C/C(C)=N/NC(N)=Nc2ccc(Cl)cc2)cc1
dose: 12.5 mg/kg/injection, schedule: Q01DX005 (ip), vehicle: saline with Tween-80
  T/C: 96 % of control
dose: 25.0 mg/kg/injection, schedule: Q01DX005 (ip), vehicle: saline with Tween-80
  T/C: 97 % of control
[4]
  T/C: 107 % of control and 97 % of control

## Cc1nc2[nH][nH]c(=O)c2nc1C
[5]
  T/C: 100 % of control
dose: 100.0 mg/kg/injection, schedule: Q01DX009 (ip), vehicle: saline
  T/C: 108 % of control
[6]
  T/C: 96 % of control
dose: 200.0 mg/kg/injection, schedule: Q01DX009 (ip), vehicle: saline
  T/C: 102 % of control
dose: 400.0 mg/kg/injection, schedule: Q01DX009 (ip), vehicle: saline with Tween-80
  T/C: 94 % of control
dose: 400.0 mg/kg/injection, schedule: Q01DX009 (ip), vehicle: saline
  T/C: 102 % of control
dose: 600.0 mg/kg/injection, schedule: Q01DX009 (ip), vehicle: saline with Tween-80
  T/C: 94 % of control
dose: 600.0 mg/kg/injection, schedule: Q01DX009 (ip), vehicle: saline
  T/C: 98 % of control

## Nc1cccc(C(=O)c2ccc(N)c(N)c2)c1
[7]
  T/C: 90 % of control
[8]
  T/C: 92 % of control

## CCOC(=O)CCCCCN(/C=C(\C)CN1c2c(nc(N)[nH]c2=O)NCC1CNc1ccc(C(=O)NC(CCC(=O)O)C(=O)O)cc1)C(C)=O (centres undefined)
dose: 50.0 mg/kg/injection, schedule: Q01DX001 (ip), vehicle: sodium bicarbonate
  T/C: 99 % of control
dose: 100.0 mg/kg/injection, schedule: Q01DX001 (ip), vehicle: sodium bicarbonate
  T/C: 100 % of control
dose: 200.0 mg/kg/injection, schedule: Q01DX001 (ip), vehicle: sodium bicarbonate
  T/C: 100 % of control

## CCCCc1ccc(N(C)C)cc1
[9]
  T/C: 101 % of control
[10]
  T/C: 110 % of control
[11]
  T/C: 110 % of control

## CON1C(=O)OCC(c2ccccc2)(c2ccccc2)C1=O
[4]
  T/C: 99 % of control
[12]
  T/C: 104 % of control
[13]
  T/C: 91 % of control

## CN1C(=O)c2ccccc2Cc2c(NCc3ccccc3)ncnc21
[11]
  T/C: 108 % of control
[5]
  T/C: 104 % of control
[6]
  T/C: 100 % of control

## O=S(=O)(C1CC1c1ccccc1)C1CC1c1ccc(F)cc1 (centres undefined)
[4]
  T/C: 100 % of control
[12]
  T/C: 95 % of control
[13]
  T/C: 101 % of control

## CCCCCCCCCCCCCCCC[N+]1([O-])CCCC1
dose: 50.0 mg/kg/injection, schedule: Q01DX009 (ip), vehicle: saline
  T/C: 102 % of control

## COc1cc(CC(C)N)ccc1O (centres undefined)
[9]
  T/C: 100 % of control
[10]
  T/C: 99 % of control
[11]
  T/C: 104 % of control
[5]
  T/C: 95 % of control

## O=NNc1ccnc(-c2cc(NN=O)ccn2)c1
dose: 3.12 mg/kg/injection, schedule: Q01DX009 (ip), vehicle: water
  T/C: 114 % of control
dose: 6.25 mg/kg/injection, schedule: Q01DX009 (ip), vehicle: water
  T/C: 120 % of control and 122 % of control
[14]
  T/C: 87 % of control

## Cc1ccc(/C=C2/N=C([Se])N(C)C2=O)cc1
dose: 15.0 mg/kg/injection, schedule: Q01DX005 (ip), vehicle: saline with Tween-80
  T/C: 100 % of control
dose: 30.0 mg/kg/injection, schedule: Q01DX005 (ip), vehicle: saline with Tween-80
  T/C: 95 % of control
[7]
  T/C: 101 % of control
[8]
  T/C: 86 % of control

## O=C1NC(=O)C2(CCC(O)C2)c2cc[n+]([O-])cc21 (centres undefined)
dose: 12.5 mg/kg/injection, schedule: Q01DX005 (ip), vehicle: saline
  T/C: 96 % of control
dose: 25.0 mg/kg/injection, schedule: Q01DX005 (ip), vehicle: saline
  T/C: 105 % of control
dose: 50.0 mg/kg/injection, schedule: Q01DX005 (ip), vehicle: saline
  T/C: 105 % of control
dose: 100.0 mg/kg/injection, schedule: Q01DX005 (ip), vehicle: saline
  T/C: 100 % of control

## CCOC(=O)Nc1ccc(C2OCCS2)cc1 (centres undefined)
[4]
  T/C: 86 % of control
[13]
  T/C: 90 % of control

## CC(=O)OC1C(O)C(C)OC(OC(=O)C2CCC3C(C2)OC2(CC(OC(=O)/C=C/c4ccccc4)C(C)CO2)C32CO2)C1OC1OC(C)C(O)C(O)C1O (centres undefined)
dose: 2.0 mg/kg/injection, schedule: Q01DX005 (ip), vehicle: saline + alcohol
  T/C: 100 % of control and 118 % of control
dose: 4.0 mg/kg/injection, schedule: Q01DX005 (ip), vehicle: saline + alcohol
  T/C: 119 % of control
dose: 16.0 mg/kg/injection, schedule: Q01DX005 (ip), vehicle: saline + alcohol
  T/C: 151 % of control
dose: 32.0 mg/kg/injection, schedule: Q01DX005 (ip), vehicle: saline + alcohol
  T/C: 154 % of control
dose: 64.0 mg/kg/injection, schedule: Q01DX005 (ip), vehicle: saline + alcohol
  T/C: 163 % of control

## c1ncc2[nH]cnc2n1
dose: 100.0 mg/kg/injection, schedule: Q01DX009 (ip), vehicle: saline sonified
  T/C: 100 % of control
[15]
  T/C: 104 % of control
dose: 200.0 mg/kg/injection, schedule: Q01DX009 (ip), vehicle: saline sonified
  T/C: 104 % of control
[16]
  T/C: 104 % of control
dose: 400.0 mg/kg/injection, schedule: Q01DX009 (ip), vehicle: saline sonified
  T/C: 100 % of control
[17]
  T/C: 104 % of control

## CCn1c2ccccc2c2cc(N=Nc3ccc4c(c3)c3ccccc3n4CC)ccc21
[11]
  T/C: 105 % of control
[5]
  T/C: 113 % of control

## CC(C)N(C(C)C)C1C2=C(CCSC2)OC(=O)C1(Cl)Cl (centres undefined)
[11]
  T/C: 103 % of control
[5]
  T/C: 100 % of control
[6]
  T/C: 96 % of control

## O=C(CCN1C(=O)c2ccccc2C1=O)Nc1c(I)cc(I)c(C(=O)O)c1I
[7]
  T/C: 104 % of control
[8]
  T/C: 106 % of control
[18]
  T/C: 101 % of control

## CC(=O)O.CC(=O)O.[Co+2].[NH-]C(CCC(N)=O)C(=O)O.[NH-]C(CCC(N)=O)C(=O)O (centres undefined)
[11]
  T/C: 98 % of control

## CC(C(=O)O)N1C(=O)CNC1=O (centres undefined)
[1]
  T/C: 93 % of control
[2]
  T/C: 91 % of control
[3]
  T/C: 100 % of control

## c1ccc2c(c1)[nH]c1cc3c(cc12)CCCCC3
[7]
  T/C: 107 % of control
[8]
  T/C: 91 % of control
[18]
  T/C: 97 % of control

## COc1ccc(CN2CCCNCC2)cc1
dose: 12.5 mg/kg/injection, schedule: Q01DX009 (ip), vehicle: water
  T/C: 93 % of control
dose: 25.0 mg/kg/injection, schedule: Q01DX009 (ip), vehicle: water
  T/C: 100 % of control
dose: 50.0 mg/kg/injection, schedule: Q01DX009 (ip), vehicle: water
  T/C: 102 % of control
[14]
  T/C: 93 % of control

## COc1ccc(C2=NC(=O)OC2(C)C)cc1
dose: 60.0 mg/kg/injection, schedule: Q01DX005 (ip), vehicle: Klucel (hydroxypropylcellulose) (HPC)
  T/C: 110 % of control
dose: 120.0 mg/kg/injection, schedule: Q01DX005 (ip), vehicle: Klucel (hydroxypropylcellulose) (HPC)
  T/C: 102 % of control
dose: 240.0 mg/kg/injection, schedule: Q01DX005 (ip), vehicle: Klucel (hydroxypropylcellulose) (HPC)
  T/C: 108 % of control

## Cc1ccc(S(=O)(=O)CC2(Br)Cc3ccccc3C2=O)cc1 (centres undefined)
[15]
  T/C: 103 % of control
[16]
  T/C: 100 % of control
[17]
  T/C: 100 % of control

## CNc1nc(-c2ccc(OC)cc2)c(-c2ccc(OC)cc2)[nH]1
dose: 25.0 mg/kg/injection, schedule: Q04DX002 (ip), vehicle: saline with Tween-80
  T/C: 108 % of control and 111 % of control
dose: 50.0 mg/kg/injection, schedule: Q04DX002 (ip), vehicle: saline with Tween-80
  T/C: 107 % of control
dose: 100.0 mg/kg/injection, schedule: Q04DX002 (ip), vehicle: saline with Tween-80
  T/C: 99 % of control

## C=CCCCn1nc(-c2ccccc2)c(-c2ccccc2)n1
[11]
  T/C: 106 % of control
[5]
  T/C: 100 % of control
[6]
  T/C: 103 % of control
